Reference: patent US9023836B2, “Use of substituted heterocyclic compounds to control sea lice on fish” (Novartis Tiergesundheit AG, priority 2010, dated 2015)
Values after ≈ are worked out from the molar mass of the structure shown.

Experiments:
[1] = tested on: Lepeophtheirus salmonis copepodids; test: Activity in vitro against Lepeophtheirus salmonis at copepodid stage; conditions: 1 hour contact in sea water, then 48 h in untreated sea water, no movement over 80 seconds, read-out: efficacy (EC80)
Procedure: Activity in Vitro Against Lepeophtheirus Salmonis at Copepodid Stage Sea lice copepodids were used to seed a 96-well plate containing the test substances to be evaluated for antiparasitic activity. Each compound was tested by serial dilution in order to determine its minimal effective dose (MED). Copepodids were left in contact with the test compound diluted in sea water for 1 hour. They were then incubated in untreated sea water for 48 h. Efficacy against sea lice was then confirmed if no copepodid moved over a period of 80 seconds.

[2] = tested on: Lepeophtheirus salmonis adult lice; test: In vitro activity against Lepeophtheirus salmonis at adult stage; conditions: at 1 ppm; 60 minutes exposure, survival at 24 hours post exposure, 12° C.
Procedure: In Vitro Activity of Compound 8 Against Lepeophtheirus Salmonis at Adult Stage
Ten mixed sex adult lice (non gravid, Lepeophtheirus salmonis) were removed from fish and exposed to a test compound at several dilution in filtered sea water and placed in an incubator at 12° C. in dark conditions. After 60 minutes exposure, lice were rinsed in clean sea water and transferred to petri dishes containing 100 mL of sea water. They were then returned to the incubator. Lice were examined for survival at 24 hours post exposure (moribund lice considered as dead)

[3] = tested on: Lepeophtheirus salmonis on Atlantic salmon; test: In vivo activity against Lepeophtheirus salmonis on Atlantic salmon using injectable application
Procedure: In Vivo Activity of Compound 8 Against Lepeophtheirus Salmonis on Atlantic Salmon using Injectable Application
Twenty Atlantic salmon (mean weights at about 100 g) were anaesthetized with 2-phenoxy ethanol, individually weighed and injected with 0.2 ml of compound 8 formulated in PEG300 at 2.5%, corresponding to a 50 mg/kg dose. Each treatment was administered by single IP injection and fish were then transferred to a flow through tank, the temperature of which was maintained between 6 and 14° C. Louse infection was by exposure of experimental fish to louse copepodids freshly hatched from Lepeophtheirus salmonis egg strings. The number of copepodids used was selected to provide a settlement rate of at least 10 lice per fish. Sea louse numbers were assessed when they had developed to chalimus stage III/IV or later on if needed.
(§1) Ten fish per group were anaesthetized with 2 phenoxy-ethanol and examined for louse settlement under a dissecting microscope. Differences in sea louse counts between each test group and the relevant control group (non treated) infested at the same time as the test group were assessed using Mann-Whitney Tests. Efficacy was calculated using the formula: % Efficacy=100−(100×mean of treatment group/mean of control).

[4] = tested on: Lepeophtheirus salmonis on Atlantic salmon; test: In vivo activity against Lepeophtheirus salmonis on Atlantic salmon using bath treatment application; conditions: bath 2 ppm in salt water, 60 minutes
Procedure: In Vivo Activity of Compound 8 Against Lepeophtheirus Salmonis on Atlantic Salmon using Bath Treatment Application Bath containing compound 8 at 2 ppm in salt water was prepared by dilution of a solution of compound 8 in DMSO. Fish (Atlantic salmons) had been previously infected with 2 cohorts of lice to ensure the presence of chalimus and motile lice at the time of treatment. This test was performed on thirty fish per group and was compared to 30 control fish that were bathed in sea water containing DMSO only (at an inclusion rate equal to that used in the test group using the most DMSO as solvent), for 60 minutes. The fish were then transferred to holding tanks and sampled for lice numbers at 3 and 10 days post treatment. Ten fish per group were anaesthetized with 2 phenoxy-ethanol and examined for louse settlement under a dissecting microscope. Differences in sea louse counts between each test group and the relevant control group (non treated) infested at the same time as the test group were assessed using Mann-Whitney Tests. Efficacy was calculated using the formula: % Efficacy=100−(100×mean of treatment group/mean of control).

[5] = tested on: Lepeophtheirus salmonis on Atlantic salmon; test: In vivo activity against Lepeophtheirus salmonis on Atlantic salmon using in-feed application; conditions: medicated pellets 9.8 mg/kg/day, 7 consecutive days
Procedure: In Vivo Activity of Compound 8 Against Lepeophtheirus Salmonis on Atlantic Salmon using In-Feed Application
Compound 8 was administered orally via medicated fish pellets at an average dose of 9.8 mg/kg/day during 7 consecutive days to 50 Atlantic salmon infected with lice (Lepeophtheirus salmonis). The medicated pellets were prepared by dry top coating of the compound 8, formulated as feed additive as described above, and over-oiling to seal (1% fish oil). Fish had been previously infected by exposure to louse. The number of copepodids used was selected to provide an settlement rate of at least 10 lice per fish. Treatment was done when lice had developed to pre-adult II and adult stages. Sea louse numbers were assessed 34 days post treatment. A second challenge using louse copepodids took place at 41 days post treatment. Sea louse numbers were assessed when they had developed to adults.
as §1, with “All” for “Ten”, “fish” for “fish per group”

[6] = 50 mg/kg IP, 14 days post treatment, Chalimus III
[7] = 50 mg/kg IP, 41 days post treatment, Chalimus III
[8] = 50 mg/kg IP, 83 days post treatment, Chal III/IV
[9] = 50 mg/kg IP, 127 days post treatment, Chal III/IV
[10] = 50 mg/kg IP, 169 days post treatment, Chal III/IV
[11] = 50 mg/kg IP, 217 days post treatment, Adults
[12] = 50 mg/kg IP, 217 days post treatment, Chal III/IV
[13] = 50 mg/kg IP, 217 days post treatment, PAI & PAII
[14] = 50 mg/kg IP, 252 days post treatment, Chal IV/PAI

In the case of `Cc1cc(C2=NOC(c3cc(Cl)cc(Cl)c3)(C(F)(F)F)C2)ccc1CNC(=O)CC(C)C` (centres unmarked) [Example 31], the EC80 [1] is reported as 0.05 µg/mL (≈ 0.103 µM).
`N#Cc1cc(C2=NOC(c3cc(Cl)cc(Cl)c3)(C(F)(F)F)C2)ccc1-n1cncn1` (centres unmarked) [Example 6] gave an EC80 [1] of 0.05 µg/mL (≈ 0.111 µM).
`Cc1cc(C2=NOC(c3cc(Cl)cc(Cl)c3)(C(F)(F)F)C2)ccc1CNC(=O)C1CCC1` (centres unmarked) [Example 30] gave an EC80 [1] of 0.05 µg/mL (≈ 0.103 µM).
For `Cc1cc(C2=NOC(c3cc(Cl)cc(Cl)c3)(C(F)(F)F)C2)ccc1C(=O)NCC(=O)NCC(F)(F)F` (centres unmarked) [Example 14], the EC80 [1] was 0.05 µg/mL (≈ 0.0899 µM).
`COC(=O)CNC(=O)c1ccc(C2=NOC(c3cc(Cl)cc(Cl)c3)(C(F)(F)F)C2)c2ccccc12` (centres unmarked) [Example 10] showed an EC80 [1] of 0.05 µg/mL (≈ 0.0952 µM).
`O=C(CNC(=O)c1ccc(C2=NOC(c3cc(Cl)cc(Cl)c3)(C(F)(F)F)C2)c2ccccc12)NCC(F)(F)F` (centres unmarked) [Example 11] was tested, and the EC80 [1] was 0.05 µg/mL (≈ 0.0844 µM).
In the case of `CN(C)/C=N/C(=O)c1ccc(C2=NOC(c3cc(Cl)cc(Cl)c3)(C(F)(F)F)C2)c2ccccc12` (centres unmarked) [Example 12], the EC80 [1] is reported as 0.05 µg/mL (≈ 0.0984 µM).
`CCCC(=O)NCc1ccc(C2=NOC(c3cc(Cl)cc(Cl)c3)(C(F)(F)F)C2)cc1C` (centres unmarked) [Example 25] showed an EC80 [1] of 0.05 µg/mL (≈ 0.106 µM).
With `Cc1cc(C2=NOC(c3cc(Cl)cc(Cl)c3)(C(F)(F)F)C2)ccc1CNC(=O)C1CC1` (centres unmarked) [Example 24] the EC80 [1] was 0.05 µg/mL (≈ 0.106 µM).
Compound `CSCC(=O)NCc1ccc(C2=NOC(c3cc(Cl)cc(Cl)c3)(C(F)(F)F)C2)cc1C` (centres unmarked) [Example 28] has an EC80 [1] of 0.05 µg/mL (≈ 0.102 µM).
Work on `Cc1cc(C2=NOC(c3cc(Cl)cc(Cl)c3)(C(F)(F)F)C2)ccc1C(=O)NCc1ccccn1` (centres unmarked) [Example 2] yielded an EC80 [1] of 0.05 µg/mL (≈ 0.0984 µM).
`Cc1cc(C2=NOC(c3cc(Cl)cc(Cl)c3)(C(F)(F)F)C2)ccc1CNC(=O)CCC#N` (centres unmarked) [Example 33] gave an EC80 [1] of 0.05 µg/mL (≈ 0.103 µM).
Work on `CCC(=O)NCc1ccc(C2=NOC(c3cc(Cl)cc(Cl)c3)(C(F)(F)F)C2)cc1C` (centres unmarked) [Example 17] yielded an EC80 [1] of 0.05 µg/mL (≈ 0.109 µM).
For `COCCC(=O)NCc1ccc(C2=NOC(c3cc(Cl)cc(Cl)c3)(C(F)(F)F)C2)cc1C` (centres unmarked) [Example 18], the EC80 [1] was 0.05 µg/mL (≈ 0.102 µM).
In the case of `O=C(NCC(F)(F)F)c1ccc(C2=NOC(c3cc(Cl)cc(Cl)c3)(C(F)(F)F)C2)c2ccccc12` (centres unmarked) [Example 8], the EC80 [1] is reported as 0.05 µg/mL (≈ 0.0934 µM), the Efficacy [2] is reported as “more than 90%” and the Efficacy [3, 6] is reported as 99.5%. For the same compound, the “Mean lice count of treated fish ± s.d.” value [3, 6] was 0.1 ± 0.3, the Efficacy [3, 7] was 100% and the “Mean lice count of treated fish ± s.d.” value [3, 7] was 0.0 ± 0.0. For the same compound, the Efficacy [3, 8] was 100%, the “Mean lice count of treated fish ± s.d.” value [3, 8] was 0.0 ± 0.0 and the Efficacy [3, 9] was 100%. For the same compound, the “Mean lice count of treated fish ± s.d.” value [3, 9] was 0.0 ± 0.0, the Efficacy [3, 10] was 100% and the “Mean lice count of treated fish ± s.d.” value [3, 10] was 0.0 ± 0.0. For the same compound, the Efficacy [3, 11] was 97.3%, the “Mean lice count of treated fish ± s.d.” value [3, 11] was 0.5 ± 1.0 and the Efficacy [3, 12] was 74.3%. The “Mean lice count of treated fish ± s.d.” value [3, 12] was 22.9 ± 27.7, the Efficacy [3, 13] was 94.6% and the “Mean lice count of treated fish ± s.d.” value [3, 13] was 4.5 ± 5.8. The Efficacy ([3]; 50 mg/kg IP, 252 days post treatment, Adults) was 84.9%, the Efficacy [3, 14] was 29.8% and the “Mean lice count of treated fish ± s.d.” value [3, 14] was 21.4 ± 15.5. The Efficacy ([3]; single IP injection 50 mg/kg in PEG300, for up to 7 months post treatment) was “more than 90%”, the “effective against adult sea lice” value ([4]; 3 days post treatment) was 100% and the “effective against developing chalimus stage” value ([4]; by 10 days post treatment) was 96%. For the same compound, the “efficacy as a curative treatment (first challenge)” value ([5]; lice assessed 34 days post treatment) was 100% and the “efficacy on the challenge performed 41 days post treatment” value ([5]; second challenge with copepodids, assessed at adult stage) was 100%.
With `CC(=O)NCc1ccc(C2=NOC(c3cc(Cl)cc(Cl)c3)(C(F)(F)F)C2)cc1C` (centres unmarked) [Example 29] the EC80 [1] was 0.05 µg/mL (≈ 0.112 µM).
Work on `CON/C=N/C(=O)c1ccc(C2=NOC(c3cc(Cl)cc(Cl)c3)(C(F)(F)F)C2)cc1C` (centres unmarked) [Example 16] yielded an EC80 [1] of 0.05 µg/mL (≈ 0.105 µM).
With `Cc1cc(C2=NOC(c3cc(Cl)cc(Cl)c3)(C(F)(F)F)C2)ccc1CNC(=O)CC1(C)OCCO1` (centres unmarked) [Example 26] the EC80 [1] was 0.05 µg/mL (≈ 0.0941 µM).
Work on `Cc1cc(C2=NOC(c3cc(Cl)cc(Cl)c3)(C(F)(F)F)C2)ccc1-n1cncn1` (centres unmarked) [Example 1] yielded an EC80 [1] of 0.05 µg/mL (≈ 0.113 µM).
Work on `CON/C=N\C(=O)c1ccc(C2=NOC(c3cc(Cl)cc(Cl)c3)(C(F)(F)F)C2)c2ccccc12` (centres unmarked) [Example 13] yielded an EC80 [1] of 0.05 µg/mL (≈ 0.098 µM).
`O=C(NCc1ccccn1)c1ccc(C2=NOC(c3cc(Cl)cc(Cl)c3)(C(F)(F)F)C2)c2ccccc12` (centres unmarked) [Example 7] was tested, and the EC80 [1] was 0.05 µg/mL (≈ 0.0919 µM).
Compound `Cc1cc(C2=NOC(c3cc(Cl)cc(Cl)c3)(C(F)(F)F)C2)ccc1C(=O)NCC(F)(F)F` (centres unmarked) [Example 3] has an EC80 [1] of 0.05 µg/mL (≈ 0.1 µM).
